Measurements taken from ChEMBL document CHEMBL4028802, “DILIrank: the largest reference drug list ranked by the risk for developing drug-induced liver injury in humans” (Drug Discov Today, 2016).
Positions of bridges follow the written chain, without caps; N, C: chain ends. Non-standard residues stand in square brackets, D forms with d. Residues, ends and D or L forms follow the SMILES beside them. pGlu = O=C1CC[C@@H](C(=O)O)N1

Key:
[1] = species: Homo sapiens; assay: Liver toxicity in human assessed as induction of drug-induced liver injury by measuring verified drug-induced liver injury concern status
[2] = species: Homo sapiens; assay: Liver toxicity in human assessed as induction of drug-induced liver injury by measuring severity class index
For DILI severity class in this document: key of the grades not given here.

Row | Structure (SMILES) | DILI_Concern [1] | DILI_severity_class [2]
1 | CC(C)CN(C[C@@H](O)[C@H](Cc1ccccc1)NC(=O)O[C@H]1CCOC1)S(=O)(=O)c1ccc(N)cc1 | Ambiguous-Dili-Concern | 3
2 | CNS(=O)(=O)CCc1ccc2[nH]cc(C3CCN(C)CC3)c2c1 | Ambiguous-Dili-Concern | 4
3 | CNS(=O)(=O)Cc1ccc2[nH]cc(CCN(C)C)c2c1 | Ambiguous-Dili-Concern | 3
4 | C[C@@H](O)[C@H]1C(=O)N2C(C(=O)O)=C(S[C@@H]3CN[C@H](C(=O)Nc4cccc(C(=O)O)c4)C3)[C@H](C)[C@H]12 | Ambiguous-Dili-Concern | 3
5 | CC(=O)[C@@]1(O)CC[C@H]2[C@@H]3C[C@H](C)C4=CC(=O)CC[C@]4(C)[C@H]3CC[C@@]21C | Ambiguous-Dili-Concern | 2
6 | CN1CCC[C@@H]1Cc1c[nH]c2ccc(CCS(=O)(=O)c3ccccc3)cc12 | Ambiguous-Dili-Concern | 3
7 | CCCc1nc(C)c2c(=O)[nH]c(-c3cc(S(=O)(=O)N4CCN(CC)CC4)ccc3OCC)nn12 | Ambiguous-Dili-Concern | 3
8 | CCCC[C@](C)(O)C/C=C/[C@H]1[C@H](O)CC(=O)[C@@H]1CCCCCCC(=O)OC | Ambiguous-Dili-Concern | 3
9 | CC(=O)[C@@]1(O)CC[C@H]2[C@@H]3C=C(C)C4=CC(=O)CC[C@]4(C)[C@H]3CC[C@@]21C | Ambiguous-Dili-Concern | 1
10 | O=S(=O)(O)O[C@@H]1[C@@H](OS(=O)(=O)O)[C@H](O[C@@H]2CO[C@@H](O)[C@H](OS(=O)(=O)O)[C@H]2OS(=O)(=O)O)OC[C@H]1O | Ambiguous-Dili-Concern | 3
11 | O=[N+]([O-])O[C@@H]1CO[C@H]2[C@@H]1OC[C@H]2O | Ambiguous-Dili-Concern | 3
12 | C=C1[C@H](CO)[C@@H](O)C[C@@H]1n1cnc2c(=O)[nH]c(N)nc21.O | Ambiguous-Dili-Concern | 7
13 | CC(C)(C)NC(=O)[C@@H]1CN(Cc2cccnc2)CCN1C[C@@H](O)C[C@@H](Cc1ccccc1)C(=O)N[C@H]1c2ccccc2C[C@H]1O.O | Ambiguous-Dili-Concern | 8
14 | CN1CC(=O)N2[C@H](c3ccc4c(c3)OCO4)c3[nH]c4ccccc4c3C[C@@H]2C1=O | Ambiguous-Dili-Concern | 3
15 | CC[C@H](C)[C@@H]1NC(=O)[C@H](Cc2ccc(O)cc2)NC(=O)[C@@H](N)CSSC[C@@H](C(=O)N2CCC[C@H]2C(=O)N[C@@H](CC(C)C)C(=O)NCC(N)=O)NC(=O)[C@H](CC(N)=O)NC(=O)[C@H]([C@@H](C)O)NC1=O (H-CYITNCPLG-NH2; disulfide 1-6) | No-Dili-Concern | 0
16 | CCNC(=O)[C@@H]1CCCN1C(=O)[C@H](CCCNC(=N)N)NC(=O)[C@H](CC(C)C)NC(=O)[C@H](CC(C)C)NC(=O)[C@H](Cc1ccc(O)cc1)NC(=O)[C@H](CO)NC(=O)[C@H](Cc1c[nH]c2ccccc12)NC(=O)[C@H](Cc1c[nH]cn1)NC(=O)[C@@H]1CCC(=O)N1 ([pGlu]HWSYLLRP-NHEt) | Less-Dili-Concern | 3
17 | CC(C)=CCN1CC[C@]2(C)c3cc(O)ccc3C[C@H]1[C@H]2C [(+)-PENTAZOCINE] | No-Dili-Concern | 0
18 | O[C@@H](c1cc(C(F)(F)F)nc2c(C(F)(F)F)cccc12)[C@H]1CCCCN1 [(S,R)-MEFLOQUINE] | Less-Dili-Concern | 7
19 | Nc1nc(NC2CC2)c2ncn([C@H]3C=C[C@@H](CO)C3)c2n1 [ABACAVIR] | Most-Dili-Concern | 8
20 | CC(=O)NCCCS(=O)(=O)O [ACAMPROSATE] | Less-Dili-Concern | 3
21 | C[C@H]1O[C@H](O[C@H]2[C@H](O)[C@@H](O)[C@@H](O[C@H]3[C@H](O)[C@@H](O)C(O)O[C@@H]3CO)O[C@@H]2CO)[C@H](O)[C@@H](O)[C@@H]1N[C@H]1C=C(CO)[C@@H](O)[C@H](O)[C@H]1O (some centres not stated) [ACARBOSE] | Most-Dili-Concern | 8

Row | Structure (SMILES) | DILI_Concern [1] | DILI_severity_class [2]
22 | CCCC(=O)Nc1ccc(OCC(O)CNC(C)C)c(C(C)=O)c1 (configuration not stated) [ACEBUTOLOL] | Less-Dili-Concern | 3
23 | O=C(O)COC(=O)Cc1ccccc1Nc1c(Cl)cccc1Cl [ACECLOFENAC] | Less-Dili-Concern | 0
24 | CC(=O)Nc1nnc(S(N)(=O)=O)s1 [ACETAZOLAMIDE] | Most-Dili-Concern | 8
25 | CC(=O)NO [ACETOHYDROXAMIC ACID] | Ambiguous-Dili-Concern | 3
26 | CC(=O)OCC[N+](C)(C)C.[Cl-] [ACETYLCHOLINE CHLORIDE] | No-Dili-Concern | 0
27 | CC(=O)N[C@@H](CS)C(=O)O [ACETYLCYSTEINE] | No-Dili-Concern | 0
28 | COc1cc(C)c(/C=C/C(C)=C/C=C/C(C)=C/C(=O)O)c(C)c1C [ACITRETIN] | Most-Dili-Concern | 5
29 | Nc1nc2c(ncn2COCCO)c(=O)[nH]1 [ACYCLOVIR] | Less-Dili-Concern | 5
30 | Nc1ncnc2c1ncn2CCOCP(=O)(O)O [ADEFOVIR] | Less-Dili-Concern | 2
31 | Nc1ncnc2c1ncn2[C@@H]1O[C@H](CO)[C@@H](O)[C@H]1O [ADENOSINE] | No-Dili-Concern | 0
32 | CC(N)C(=O)OC(C)(C)Cc1ccc(Cl)cc1 (configuration not stated) [ALAPROCLATE] | Most-Dili-Concern | 8
33 | CS(=O)(=O)O.C[C@H](N)C(=O)N[C@@H](C)C(=O)N[C@H]1[C@@H]2CN(c3nc4c(cc3F)c(=O)c(C(=O)O)cn4-c3ccc(F)cc3F)C[C@@H]21 [ALATROFLOXACIN MESYLATE] | Most-Dili-Concern | 8
34 | CCCSc1ccc2nc(NC(=O)OC)[nH]c2c1 [ALBENDAZOLE] | Most-Dili-Concern | 7
35 | CC(C)(C)NCC(O)c1ccc(O)c(CO)c1 (configuration not stated) [ALBUTEROL] | No-Dili-Concern | 0
36 | C=CCOc1ccc(CC(=O)O)cc1Cl [ALCLOFENAC] | Most-Dili-Concern | 8
37 | NCCCC(O)(P(=O)(O)O)P(=O)(O)O [ALENDRONIC ACID] | Less-Dili-Concern | 0
38 | COc1cc2nc(N(C)CCCNC(=O)C3CCCO3)nc(N)c2cc1OC (configuration not stated) [ALFUZOSIN] | Less-Dili-Concern | 5
39 | Oc1ncnc2[nH]ncc12 [ALLOPURINOL] | Most-Dili-Concern | 8
40 | CN(C)CCc1c[nH]c2ccc(CS(=O)(=O)N3CCCC3)cc12 [ALMOTRIPTAN] | No-Dili-Concern | 0
41 | Cc1[nH]cnc1CN1CCc2c(c3ccccc3n2C)C1=O [ALOSETRON] | Less-Dili-Concern | 4
